Source: patent US20230265069A1, “Small Molecule Inhibitors That Block the Budding of Enveloped Viruses” (priority 2020, published 2023)
Entries after “also recorded” stand apart in the source; their conditions may differ. Read-outs that look alike come from different tables or passages of the source.

Columns and labels:
HSV-1 [1] = assay: HSV-1 release from infected Vero cells, plaque assay
Vero cells [2] = assay: Vero cell toxicity, WST-1 reagent; type: cell-based
From the text: (§1) Drug potency and cell toxicity. […] Cell toxicity experiments were repeated twice.

HSV-2 [3] = assay: HSV-2 release from infected Vero cells, plaque assay; conditions: for Titer of HSV-2 Media, 24 h / Titer of HSV-2 in media + cell lysate, 24 h / Titer of HSV-2 in media, 48 h / Titer of HSV-2 Media 48 h / Total Titer HSV-2 Media + Cell Lysate, 24 h: Vero cells; for EC50: read-out: EC50 (μM) Inhibition of HSV-2 Budding at 24 h, HSV-2 infected Vero cells, virus released into media, plaque assay
HSV-2 [4] = assay: Transmission electron microscopy of HSV-2 infected Vero cells, particle counts; conditions: 24 h
Protocol: Vero cells grown on glass cover slips were infected with HSV-2 at MOI of 0.1 pfu/cell for 2 h and then treated for 24 h with 105 μM tenatoprazole or vehicle control.
(§2) Transmission electron Microscopy. Vero cells on glass cover slips were infected with HSV-2 at a MOI of 0.1 for two hours. Then 105 μM of tenatoprazole or 18 μM Ilaprazole was added and cells incubated for 24 hours. Tissue samples were fixed in 0.1 M sodium cacodylate buffer pH 7.3 containing 2% paraformaldehyde and 2.5% glutaraldehyde and post-fixed with 2% osmium tetroxide 427 in unbuffered aqueous solution. The samples were rinsed with distilled water, en bloc stained with 3% uranyl acetate, rinsed with distilled water, dehydrated in ascending grades of ethanol, transitioned with propylene oxide, embedded in the resin mixture of Embed 812 kit and cured in a 60° C. oven. Samples were sectioned on a Leica Ultracut UC6 ultramicrotome. 1 μm thick sections were collected and stained with Toluidine Blue O and 70 nm sections were collected on 200 mesh copper grids; thin sections were stained with uranyl acetate and Reynolds lead citrate. Transmission electron microscopy (TEM) was performed on a FEI Tecnai Spirit G2.

[5] = target: T1, Tsg101-UEV (Tsg101 amino acids 1-145) (Homo sapiens, UniProt Q99816); assay: Fluorescence thermal shift (FTS) assay, binding to Tsg101-UEV; conditions: for Thermal shift (Tm shift) of Tsg101-UEV caused by compound: FTS dose response, result in words; for Tm shift of Tsg101 in the FTS assay on addition of DTT: with reducing agent DTT
T1 sequence (Q99816 1-145): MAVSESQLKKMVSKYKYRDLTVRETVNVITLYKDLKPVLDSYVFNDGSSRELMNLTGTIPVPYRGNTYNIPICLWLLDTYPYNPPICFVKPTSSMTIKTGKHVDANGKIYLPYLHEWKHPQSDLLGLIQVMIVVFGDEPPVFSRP
Protocol: The fluorescence-based thermal shift assay is based on the observation that a protein unfolds upon heating, exposing the hydrophobic residues within its tertiary structure. The unfolding temperature (Tm) is determined by the protein's primary sequence and solution environment. The FTS assay uses a fluorescent dye sensitive to a hydrophobic environment to probe protein stability and its modulation by small molecule ligands. The dye has a low fluorescence quantum yield when in a polar environment. Once in contact with the hydrophobic core normally buried within a folded protein that has become exposed during the thermal unfolding (melting) process, the quantum yield of the dye increases, thus providing a reporting signal. Furthermore, a protein's stability can be affected by ligand binding, resulting in an increase or decrease in its melting temperature. FTS assay uses the Tm shift upon binding of a ligand to identify hit compounds for drug discovery.
We screened chemical compounds using a fluorescence thermal shift (FTS) assay (27, 28) to identify small molecules that bind directly to a truncated form of Tsg101 (amino acids 1-145) which contains the Ubiquitin E2 variant (UEV) ubiquitin-binding domain (FIG. 1A, 1B, 1C). […] This truncated Tsg101, called Tsg101-UEV, was used because full-length Tsg101 has significant solubility issues in aqueous solution. Tsg101 is an adaptor protein and thus lacks a readily deployable functional assay, making FTS a tractable approach to identify interacting compounds. FTS monitors protein thermal denaturation using SYPRO® Orange, a dye which fluoresces when bound to hydrophobic surfaces, which allows monitoring of the changes in hydrophobic surface exposure during protein denaturation (27). Since ligand binding affects protein thermal stability, it can be detected through modulation of protein thermal denaturation (melting) as a shift in melting temperature (Tm). Tsg101-UEV has a well-defined melting curve suitable for FTS. We used the FTS assay to identify compounds that bind to Tsg101-UEV.
Fluorescence thermal shift (FTS) screening to identify small molecule binding to Tsg101-UEV. FTS using thermal shift elicited by the small molecule binding effect to protein stability. FTS monitors protein thermal denaturation using environment-sensitive dye Sypro® Orange which fluoresces when bound to hydrophobic surfaces, taking advantage of the changes in hydrophobic surface exposure in protein denaturation. Discovery of small molecule binding to target protein utilizes the observation that ligand binding affects protein thermal stability, and therefore can be detected through a shift in the protein's thermal denaturation (melting) temperature (Tm). We have employed FTS to reveal changes in thermodynamic properties of Tsg101 elicited by its interaction with a small molecule. […] A fluorescence dye Sypro® Orange (Invitrogen) was used for assay detection. The dye is excited at 473 nm and has a fluorescence emission at 610 nm. The dye binds to hydrophobic regions of a protein that are normally buried in a native protein structure. […] The Tsg101 fragment was premixed at a concentration of 2 μM with a 5× concentration of Sypro® Orange in HEPES buffer (100 mM HEPES, 150 mM NaCl, pH 7.5). Then 10 μl of the protein-dye mix was added to an assay plate and 10 to 50 nanoliters of compound, equal to 10 to 50 μM, were added with an acoustic transfer robot Echo550 (Labcyte, CA).

HSV-1 [6] = assay: Transmission electron microscopy of HSV-1 infected Vero cells, particle counts; conditions: 18 μM ilaprazole, 24 h, HSV-1, Vero cells
Protocol: as §2

Vero cells [7] = assay: Vero cell viability, 96 AQueous One Solution cell proliferation assay; type: cell-based; conditions: for Cell toxicity at concentrations that block virus release: 24 h, result in words
From the text: as §1

293T cells = assay: 293T cell viability, 96 Aqueous One reagent; type: cell-based
From the text: as §1

HIV-1 [8] = conditions: 293T cells, media, 24 h
Protocol: Effect of Ilaprazole on release of HIV-1 in vitro. […] To this end, cells were transfected with pR9-HIV-1Ba-L plasmid and release of virus into the media fraction was detected by monitoring the capsid (CA) protein (p24) via enzyme linked immunosorbent assay analysis. The drug was tested at concentrations between 0 and 240 μM and the effect of the drug on release of virus assessed (Table 4, column 2).
HIV-1 transfection of 293 T cells. 293T cells (American Type Culture Collection) were grown in a 24-well Clear Flat Bottom TC-treated Multiwell Cell Culture Plate using Dulbecco's modified Eagle's medium (Cellgro) containing fetal bovine serum (10%), 100 U/ml penicillin, 100 μg/ml streptomycin, and 292 μg/ml 1-glutamine (Cellgro). Cells were grown to 60-70% confluency at 37° C. and 5% CO2 408 prior to addition of drug treatment. Culture media was aspirated and replaced with media containing drug compound 7 hours prior to transfection of the plasmid encoding the HIV-1 genome. Transfection was done using reagent Polyethyleneimine (PEI, Polysciences). […] After 24 h and 48 h, tissue culture media was collected and passed through a 0.45-micron filter. Virus released from cells was quantified by media-associated p24 determined using fluorescently tagged CA targeting antibody (PerkinElmer) and equivalent amounts of p24 as standards.

HIV-1 [9] = conditions: 293T cells in culture; cited from earlier work
MEK4 = target: T2, MEK4 (Homo sapiens, UniProt P45985); assay: FTS assay on unrelated protein MEK4; conditions: specificity control
T2 sequence (P45985 1-399): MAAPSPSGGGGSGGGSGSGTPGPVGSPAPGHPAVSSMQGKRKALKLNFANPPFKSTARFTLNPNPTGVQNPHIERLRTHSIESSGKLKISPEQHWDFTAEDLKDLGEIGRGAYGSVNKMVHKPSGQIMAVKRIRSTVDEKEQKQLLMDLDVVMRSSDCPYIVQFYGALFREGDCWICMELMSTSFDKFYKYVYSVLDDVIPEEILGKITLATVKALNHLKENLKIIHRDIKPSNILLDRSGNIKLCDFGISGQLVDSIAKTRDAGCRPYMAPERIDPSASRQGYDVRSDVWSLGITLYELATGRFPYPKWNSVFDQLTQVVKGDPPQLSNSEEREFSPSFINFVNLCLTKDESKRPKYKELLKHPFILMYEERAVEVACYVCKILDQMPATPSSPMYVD
From the text: (§3) Fluorescence thermal shift (FTS) screening to identify small molecule binding to Tsg101-UEV. FTS using thermal shift elicited by the small molecule binding effect to protein stability. FTS monitors protein thermal denaturation using environment-sensitive dye Sypro® Orange which fluoresces when bound to hydrophobic surfaces, taking advantage of the changes in hydrophobic surface exposure in protein denaturation. Discovery of small molecule binding to target protein utilizes the observation that ligand binding affects protein thermal stability, and therefore can be detected through a shift in the protein's thermal denaturation (melting) temperature (Tm). We have employed FTS to reveal changes in thermodynamic properties of Tsg101 elicited by its interaction with a small molecule. The recombinant Tsg101 fragment (amino acids 1-145), prepared as described above in Materials and Methods (but without label) has a thermal unfolding profile suitable for using FTS as a primary screen assay in HTS. A fluorescence dye Sypro® Orange (Invitrogen) was used for assay detection. The dye is excited at 473 nm and has a fluorescence emission at 610 nm. The dye binds to hydrophobic regions of a protein that are normally buried in a native protein structure. […] Fluorescence was detected on a real-time PCR machine CFX384 (Bio-Rad Laboratories).

DHPH = assay: FTS assay on unrelated protein DHPH; conditions: specificity control
From the text: as §3

ENO1 = ENO1 (Homo sapiens, UniProt P06733); assay: FTS assay on unrelated protein ENO1; conditions: specificity control
From the text: as §3

[10] = read-out: EC50, inhibition of HSV-1 release, Vero cells, 24 h, range stated jointly for HSV-1 and HSV-2
[11] = 18 μM ilaprazole, HSV-2, Vero cells
[12] = Tenatoprazole 52 μM, Vero cells
[13] = Tenatoprazole 79 μM, Vero cells
[14] = Tenatoprazole 105 μM, Vero cells
[15] = Tenatoprazole 131 μM, Vero cells
[16] = Tenatoprazole 157 μM, Vero cells
[17] = 105 tenatoprazole, HSV-2, 80 cells

Sequence of ENO1 (P06733 whole entry): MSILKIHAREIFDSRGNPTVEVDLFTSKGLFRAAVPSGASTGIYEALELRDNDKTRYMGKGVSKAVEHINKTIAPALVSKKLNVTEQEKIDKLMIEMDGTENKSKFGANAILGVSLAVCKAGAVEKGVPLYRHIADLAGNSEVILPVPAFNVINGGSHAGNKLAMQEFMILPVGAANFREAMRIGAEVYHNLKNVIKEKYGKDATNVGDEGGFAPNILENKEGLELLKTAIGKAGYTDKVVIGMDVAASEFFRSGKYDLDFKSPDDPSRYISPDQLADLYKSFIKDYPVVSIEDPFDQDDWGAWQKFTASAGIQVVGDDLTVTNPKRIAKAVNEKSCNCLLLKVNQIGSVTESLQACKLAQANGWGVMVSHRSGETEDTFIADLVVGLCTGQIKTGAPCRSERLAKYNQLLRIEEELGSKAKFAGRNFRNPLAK

## Ilaprazole
HSV-1 [1]; Ilaprazole 4.5 μM, Vero cells
  Titer of HSV-1 Media, 24 h: 2.00E+06
  Titer of HSV-1 Media, 48 h: 2.40E+06
  Titer of HSV-1 in media + cell lysate, 24 h: 7.0E+07
HSV-1 [1]; Ilaprazole 9.0 μM, Vero cells
  Titer of HSV-1 Media, 24 h: 7.50E+04
  Titer of HSV-1 Media, 48 h: 2.50E+05
  Titer of HSV-1 in media + cell lysate, 24 h: 3.6E+06
HSV-1 [1]; Ilaprazole 13.5 μM, Vero cells
  Titer of HSV-1 Media, 24 h: 3.20E+04
  Titer of HSV-1 Media, 48 h: 2.00E+02
  Titer of HSV-1 in media + cell lysate, 24 h: 3.8E+05
HSV-1 [1]; Ilaprazole 18.0 μM, Vero cells
  Titer of HSV-1 Media, 24 h: 6.00E+02
  Titer of HSV-1 Media, 48 h: 0.00E+00
  Titer of HSV-1 in media + cell lysate, 24 h: 9.1E+03
HSV-1 [1]; Ilaprazole 22.5 μM, Vero cells
  Titer of HSV-1 Media, 24 h: 1.00E+02
  Titer of HSV-1 Media, 48 h: 0.00E+00
  Titer of HSV-1 in media + cell lysate, 24 h: 7E+02
HSV-1 [1]; Vero cells, data not shown
  Inhibition of virus release 4 and 5 days after a single application: Significant inhibition was still observed
HSV-1 [1]; read-out: EC50, inhibition of HSV-1 release at 72 h, Vero cells, 72 h after a single application
  EC50: 0.8 to 1.2 µM
HSV-1 [1]; [10]
  EC50: 3 to 9 µM
Vero cells [2]; Ilaprazole 4.5 μM
  WST-1 Cell Toxicity OD440-660 nm, 24 h: 1.058
Vero cells [2]; Ilaprazole 9.0 μM
  WST-1 Cell Toxicity OD440-660 nm, 24 h: 1.055
Vero cells [2]; Ilaprazole 13.5 μM
  WST-1 Cell Toxicity OD440-660 nm, 24 h: 0.950
Vero cells [2]; Ilaprazole 27 μM
  WST-1 Cell Toxicity OD440-660 nm, 24 h: 1.055
Vero cells [2]; Ilaprazole 270 μM
  WST-1 Cell Toxicity OD440-660 nm, 24 h: 0.423
HSV-2 [3]; Ilaprazole 4.5 μM
  Titer of HSV-2 Media, 24 h: 1.00E+05
  Titer of HSV-2 in media + cell lysate, 24 h: 3.60E+07
  Titer of HSV-2 in media, 48 h: 2.50E+05
HSV-2 [3]; Ilaprazole 9.0 μM
  Titer of HSV-2 Media, 24 h: 5.00E+04
  Titer of HSV-2 in media + cell lysate, 24 h: 4.50E+06
  Titer of HSV-2 in media, 48 h: 7.50E+04
HSV-2 [3]; Ilaprazole 13.5 μM
  Titer of HSV-2 Media, 24 h: 1.00E+04
  Titer of HSV-2 in media + cell lysate, 24 h: 4.30E+06
  Titer of HSV-2 in media, 48 h: 5.50E+04
HSV-2 [3]; Ilaprazole 18.0 μM
  Titer of HSV-2 Media, 24 h: 1.50E+03
  Titer of HSV-2 in media + cell lysate, 24 h: 2.00E+05
  Titer of HSV-2 in media, 48 h: 1.50E+03
HSV-2 [3]; Ilaprazole 22.5 μM
  Titer of HSV-2 Media, 24 h: 1.00E+02
  Titer of HSV-2 in media + cell lysate, 24 h: 1.50E+04
  Titer of HSV-2 in media, 48 h: 3.00E+02
HSV-2 [3]
  EC50: 3 to 9 µM
HSV-2 [4]; [11]
  Average number of virus particles in the nucleus: 31 particles
  Range of virus particles in the nucleus: 9-56 particles
  Virus particles in the cytoplasm: 0 particles
[5]
  Thermal shift (Tm shift) of Tsg101-UEV caused by compound: largest thermal shift
  Tm shift of Tsg101 in the FTS assay on addition of DTT: blocked by the addition of DTT; also recorded: abolishes the Tm shift
HSV-1 [6]
  Average number of virus particles in the nucleus: 43 particles
  Range of virus particles in the nucleus: 15-166 particles
  Virus particles in the cytoplasm: 0 particles
Vero cells [7]
  Cell toxicity at concentrations that block virus release: did not observe cell toxicity
Vero cells [7]; Ilaprazole 4.5 μM
  96 ® Cell Viablility OD490 nm 24 h: 1.764
Vero cells [7]; Ilaprazole 9.0 μM
  96 ® Cell Viablility OD490 nm 24 h: 1.711
Vero cells [7]; Ilaprazole 13.5 μM
  96 ® Cell Viablility OD490 nm 24 h: 1.690
Vero cells [7]; Ilaprazole 18.0 μM
  96 ® Cell Viablility OD490 nm 24 h: 1.737
Vero cells [7]; Ilaprazole 54 μM
  96 ® Cell Viablility OD490 nm 24 h: 1.658
Vero cells [7]; Ilaprazole 270 μM
  96 ® Cell Viablility OD490 nm 24 h: 0.466
293T cells; 293T cells
  Toxicity to cells at concentrations that inhibited release of HIV-1: did not detect toxicity
293T cells; Ilaprazole 1.8 μM
  96 ® Cell Viability OD490 nm, 24 h: 1.672
293T cells; Ilaprazole 3.6 μM
  96 ® Cell Viability OD490 nm, 24 h: 1.576
293T cells; Ilaprazole 7.2 μM
  96 ® Cell Viability OD490 nm, 24 h: 1.684
293T cells; Ilaprazole 10.8 μM
  96 ® Cell Viability OD490 nm, 24 h: 1.650
293T cells; Ilaprazole 13.5 μM
  96 ® Cell Viability OD490 nm, 24 h: 1.693
HIV-1 [8]; Ilaprazole 0.5 μM
  p24 pg/ml HIV: 4063 pg/mL
HIV-1 [8]; Ilaprazole 1 μM
  p24 pg/ml HIV: 3518 pg/mL
HIV-1 [8]; Ilaprazole 2 μM
  p24 pg/ml HIV: 1652 pg/mL
HIV-1 [8]; Ilaprazole 5 μM
  p24 pg/ml HIV: 274 pg/mL
HIV-1 [8]; Ilaprazole 10 μM
  p24 pg/ml HIV: 178 pg/mL

## Tenatoprazole
HIV-1 [9]
  Inhibition of release of infectious HIV-1 from 293T cells (earlier report): quantitatively inhibit
HSV-1 [1]; [12]
  Titer of HSV-1 Media, 48 H: 1.4E+07
  Titer of HSV-1 Media, 24 h: 2.90E+05
HSV-1 [1]; [13]
  Titer of HSV-1 Media, 48 H: 8.0E+06
  Titer of HSV-1 Media, 24 h: 1.30E+05
HSV-1 [1]; [14]
  Titer of HSV-1 Media, 48 H: 5.3E+05
  Titer of HSV-1 Media, 24 h: 5.40E+04
HSV-1 [1]; [15]
  Titer of HSV-1 Media, 48 H: 3.5E+04
  Titer of HSV-1 Media, 24 h: 2.40E+03
HSV-1 [1]; [16]
  Titer of HSV-1 Media, 48 H: 1.0E+02
  Titer of HSV-1 Media, 24 h: 1.30E+02
HSV-1 [1]; Vero cells, 24 hours after infection
  Drop of HSV-1 in released infectious virus: 3 log
HSV-1 [1]; against either virus (HSV-1, HSV-2), data not shown
  Duration of inhibition of virus release: began to fall off after 48 h
HSV-1 [1]; [10]
  EC50: 48 to 80 µM
HSV-2 [3]; Tenatoprazole 52 μM
  Titer of HSV-2 Media 48 h: 1.30E+06
  Titer of HSV-2 Media, 24 h: 6.50E+04
  Total Titer HSV-2 Media + Cell Lysate, 24 h: 4.00E+06
HSV-2 [3]; Tenatoprazole 60 μM
  Titer of HSV-2 Media 48 h: 5.60E+04
  Titer of HSV-2 Media, 24 h: 1.00E+03
  Total Titer HSV-2 Media + Cell Lysate, 24 h: 2.30E+04
HSV-2 [3]; Tenatoprazole 79 μM
  Titer of HSV-2 Media 48 h: 4.80E+03
  Titer of HSV-2 Media, 24 h: 2.50E+02
  Total Titer HSV-2 Media + Cell Lysate, 24 h: 1.50E+03
HSV-2 [3]; Tenatoprazole 105 μM
  Titer of HSV-2 Media 48 h: 1.80E+02
  Titer of HSV-2 Media, 24 h: 0.00E+00
  Total Titer HSV-2 Media + Cell Lysate, 24 h: 6.00E+02
HSV-2 [3]; Tenatoprazole 131 μM
  Titer of HSV-2 Media, 24 h: 0.00E+00
  Total Titer HSV-2 Media + Cell Lysate, 24 h: 3.00E+02
HSV-2 [3]
  EC50: 84 µM
MEK4
  Tm shift of MEK4: did not observe a Tm shift
HSV-2 [4]; [17]
  Average number of virus particles in the nucleus: 31 particles
  Virus particles in the cytoplasm: did not detect virus particles
[5]
  Thermal shift (Tm shift) of Tsg101-UEV caused by compound: dose-dependent shift in the Tm
  Tm shift of Tsg101 in the FTS assay on addition of DTT: abolishes the Tm shift
DHPH
  Tm shift of DHPH: did not observe a Tm shift
Vero cells [7]
  Cell toxicity at concentrations that block virus release: nontoxic
Vero cells [7]; Tenatoprazole 52 μM
  Viability of OD 490 nm, 24 h: 1.724
Vero cells [7]; Tenatoprazole 60 μM
  Viability of OD 490 nm, 24 h: 1.759
Vero cells [7]; Tenatoprazole 79 μM
  Viability of OD 490 nm, 24 h: 1.742
Vero cells [7]; Tenatoprazole 105 μM
  Viability of OD 490 nm, 24 h: 1.777
Vero cells [7]; Tenatoprazole 131 μM
  Viability of OD 490 nm, 24 h: 1.714
Vero cells [7]; Tenatoprazole 200 μM
  Viability of OD 490 nm, 24 h: 0.872
ENO1
  Tm shift of ENO1: did not observe a Tm shift
